This experiment addresses T1, human histamine H3 receptor (Homo sapiens, UniProt Q9Y5N1).
T1 construct: One microgram of supercoiled H3 receptor cDNA was added to the cells and mixed; expressed in transfected cells; membranes prepared from cell pellets
In words: {3H}-N-methylhistamine binding. Here is the method: Transfection of Cells with Human Histamine Receptor
A 10 cm tissue culture dish with a confluent monolayer of SK-N-MC cells was split two days prior to transfection. Using sterile technique the media was removed and the cells were detached from the dish by the addition of trypsin. One fifth of the cells were then placed onto a new 10 cm dish. Cells were grown in a 37° C. incubator with 5% CO2 in Minimal Essential Media Eagle with 10%. Fetal Bovine Serum. After two days cells were approximately 80% confluent. These were removed from the dish with trypsin and pelleted in a clinical centrifuge. The pellet was then re-suspended in 400 μL complete media and transferred to an electroporation cuvette with a 0.4 cm gap between the electrodes. One microgram of supercoiled H3 receptor cDNA was added to the cells and mixed. The voltage for the electroporation was set at 0.25 kV, the capacitance was set at 960 μF. After electroporation the cells were diluted into 10 mL complete media and plated onto four 10 cm dishes. Because of the variability in the efficiency of electroporation, four different concentrations of cells were plated. The ratios used were; 1:20, 1:10, 1:5, with the remainder of the cells being added to the fourth dish. […] After 10 days dishes were analyzed for surviving colonies of cells. Dishes with well-isolated colonies were used. Cells from individual colonies were isolated and tested. SK-N-MC cells were used because they give efficient coupling for inhibition of adenylate cyclase. The clones that gave the most robust inhibition of adenylate cyclase in response to histamine were used for further study.
{^3H}-N-methylhistamine Binding
Cell pellets from histamine H3 receptor-expressing SK-N-MC cells were homogenized in 20 mM TrisHCl/0.5 mM EDTA. Supernatants from an 800 g spin were collected, recentrifuged at 30,000 g for 30 min. Pellets were re-homogenized in 50 mM Tris/5 mM EDTA (pH 7.4). […] Filters were dried, added to 4 mL scintillation cocktail and then counted on a liquid scintillation counter. Non-specific binding was defined with 10 μM histamine.

Structures are written as SMILES. pKi: −log10 of the molar value. Structures can show the parent of a compound that is named as a salt. Where two headings read alike, the source gives them in different places.

T1 sequence (Q9Y5N1 whole entry): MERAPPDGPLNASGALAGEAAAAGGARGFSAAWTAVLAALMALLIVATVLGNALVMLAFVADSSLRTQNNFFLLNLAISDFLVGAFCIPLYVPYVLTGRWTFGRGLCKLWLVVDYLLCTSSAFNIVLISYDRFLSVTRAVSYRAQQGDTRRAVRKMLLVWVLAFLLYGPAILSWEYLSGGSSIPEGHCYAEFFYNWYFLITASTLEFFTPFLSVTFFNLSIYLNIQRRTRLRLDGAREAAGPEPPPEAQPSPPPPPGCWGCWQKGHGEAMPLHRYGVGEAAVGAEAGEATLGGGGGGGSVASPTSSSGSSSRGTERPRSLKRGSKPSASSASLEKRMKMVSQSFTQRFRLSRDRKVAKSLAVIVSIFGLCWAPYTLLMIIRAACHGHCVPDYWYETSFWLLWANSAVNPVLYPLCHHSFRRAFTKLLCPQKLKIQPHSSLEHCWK

Take `CCC(CC)N1CCN(C(=O)c2ccc(CN3CCCCC3)cc2)CC1` [Example 27, {4-(1-Ethyl-propyl)-piperazin-1-yl}-(4-piperidin-1-ylmethyl-phenyl)-methanone]: the pKi (in general, the Ki on a negative log10 scale, so that one unit is a factor of ten) was 9.40.
As for `CCC(CC)N1CCN(C(=O)c2ccc(CN3CCCC3)cc2)CC1` [Example 26, {4-(1-Ethyl-propyl)-piperazin-1-yl}-(4-pyrrolidin-1-ylmethyl-phenyl)-methanone], the pKi was 9.05.
Compound `CCC(CC)N1CCN(C(=O)c2ccc(CN(C)C)cc2)CC1` [Example 46, (4-Dimethylaminomethyl-phenyl)-{4-(1-ethyl-propyl)-piperazin-1-yl}-methanone dihydrochloride] had a negative-log Ki (pKi) of 8.70. This pKi lies 0.35 log units lower than the previous one.
For `CC(C)N1CCN(C(=O)c2ccc(CN3CCCCCC3)cc2)CC1` [Example 60, (4-Azepan-1-ylmethyl-phenyl)-(4-isopropyl-piperazin-1-yl)-methanone dihydrochloride], the pKi was 9.00.
In turn, `O=C(c1ccc(CN2CCCCC2)cc1)N1CCN(C2CCCCC2)CC1` [Example 66, (4-Cyclohexyl-piperazin-1-yl)-(4-piperidin-1-ylmethyl-phenyl)-methanone] gave a pKi of 9.00.
Take `CC(C)N1CCN(C(=O)c2ccc(CN3CCOCC3)cc2)CC1` [Example 40]: the pKi was 8.52.
For `CC(C)N1CCN(C(=O)c2ccc(CNc3ccc(C(F)(F)F)nc3)cc2)CC1` [Example 52, (4-Isopropryl-piperazin-1-yl)-{4-{(6-trifluoromethyl-pyridin-3-ylamino)-methyl}-phenyl}-methanone dihydrochloride], the pKi is 7.85.
`CC(C)N1CCN(C(=O)c2cccc(CN3CCCCC3)c2)CC1` [Example 39, (4-Isopropyl-piperazin-1-yl)-(3-piperidin-1-ylmethyl-phenyl)-methanone] showed a negative-log Ki (pKi) of 7.46.
Consider `CC(C)N1CCN(Cc2ccc(C(=O)N3CCN(C(C)C)CC3)cc2)CC1` [Example 35, (4-Isopropyl-piperazin-1-yl)-{4-(4-isopropyl-piperazin-1-ylmethyl)-phenyl}-methanone], for which the pKi (membranes of histamine H3 receptor-expressing SK-N-MC cells, 0.8 nM {3H}-N-methylhistamine, 45 min at 25° C., […]) is 7.74.
Turning to `CC(C)N1CCN(C(=O)c2ccc(CNc3ccc(C(F)(F)F)cn3)cc2)CC1` [Example 55, (4-Isopropyl-piperazin-1-yl)-{4-{(5-trifluoromethyl-pyridin-2-ylamino)-methyl}-phenyl}-methanone dihydrochloride], the pKi was 7.31.
Still for that read-out and setting: in the case of `COCCNCc1ccc(C(=O)N2CCN(C(C)C)CC2)cc1` [Example 70, (4-Isopropyl-piperazin-1-yl)-{4-[(2-methoxy-ethylamino)-methyl]-phenyl}-methanone] it was 8.70.
Take `CCCCCCC(C)N1CCN(C(=O)c2ccc(CN3CCOCC3)cc2)CC1` (stereo not drawn) [Example 32, {4-(1-Methyl-heptyl)-piperazin-1-yl}-(4-morpholin-4-ylmethyl-phenyl)-methanone]: the pKi is 6.89.
For `CCC(CC)N1CCN(C(=O)c2ccc(CNc3ccccc3)cc2)CC1` [Example 45, {4-(1-Ethyl-propyl)-piperazin-1-yl}-(4-phenylaminomethyl-phenyl)-methanone dihydrochloride], the pKi was 7.27.
With `CCC(CC)N1CCN(C(=O)c2ccc(CN3CCCCCC3)cc2)CC1` [Example 21, (4-Azepan-1-ylmethyl-phenyl)-{4-(1-ethyl-propyl)-piperazin-1-yl}-methanone], the pKi was 8.70.
As to `CCC(C)N1CCN(C(=O)c2ccc(CN3CCCC3)cc2)CC1` (stereo not drawn) [Example 25, (4-sec-Butyl-piperazin-1-yl)-(4-pyrrolidin-1-ylmethyl-phenyl)-methanone], the pKi is 9.00.
For the compound `CCC(CC)N1CCN(C(=O)c2ccc(CN3CCC4CCCCC4C3)cc2)CC1` (stereo not drawn) [Example 22, {4-(1-Ethyl-propyl)-piperazin-1-yl}-{4-(decahydro-isoguinolin-2-ylmethyl)-phenyl}-methanone], the negative-log Ki (pKi) is 8.70.
For the compound `CCCCN1CCN(C(=O)c2ccc(CN(C)C)cc2)CC1` [Example 30, (4-Butyl-piperazin-1-yl)-(4-dimethylaminomethyl-phenyl)-methanone], the pKi is 7.74.
Take `CCC(C)N1CCN(C(=O)c2ccc(CN3CCCCCC3)cc2)CC1` (stereo not drawn) [Example 23, (4-Azepan-1-ylmethyl-phenyl)-(4-sec-butyl-piperazin-1-yl)-methanone]: the pKi is 9.05. This pKi lies 1.31 log units higher than the previous one.
As for `CCN(CC)Cc1ccc(C(=O)N2CCN(C(C)C)CC2)cc1` [Example 57, (4-Diethylaminomethyl-phenyl)-(4-isopropyl-piperazin-1-yl)-methanone dihydrochloride], the negative-log Ki (pKi) was 8.22. This pKi lies 0.83 log units lower than the previous one.
The compound `CCCN(CCOC)Cc1ccc(C(=O)N2CCN(C(C)C)CC2)cc1` [Example 68, (4-Isopropyl-piperazin-1-yl)-(4-{[(2-methoxy-ethyl)-propyl-amino]-methyl}-phenyl)-methanone] gave a pKi of 8.70.
The same measure, in the same setting: in the case of `CCN(CCOC)Cc1ccc(C(=O)N2CCN(C(C)C)CC2)cc1` [Example 69, (4-{[Ethyl-(2-methoxy-ethyl)-amino]-methyl}-phenyl)-(4-isopropyl-piperazin-1-yl)-methanone] it was 8.52.
In turn, `CN1CCN(C(=O)c2cccc(CN3CCC(Cc4ccccc4)CC3)c2)CC1` [Example 42, {3-(4-Benzyl-piperidin-1-ylmethyl)-phenyl}-(4-methyl-piperazin-1-yl)-methanone] had a pKi of 6.10.
Same read-out and setting: for `CC(C)N1CCN(C(=O)c2ccc(CNCc3ccccc3)cc2)CC1` [Example 58, {4-(Benzylamino-methyl)-phenyl}-(4-isopropyl-piperazin-1-yl)-methanone dihydrochloride] the value was 8.52.
Turning to `CC(C)N1CCN(C(=O)c2ccc(CNc3ccc(C(F)(F)F)cc3)cc2)CC1` [Example 34, (4-Isopropyl-piperazin-1-yl)-{4-{(4-trifluoromethyl-phenylamino)-methyl}-phenyl}-methanone], the pKi is 7.17.
For the compound `CC(C)N1CCN(C(=O)c2ccc(CN3CCCC3)cc2)CC1` [Example 61, (4-Isopropyl-piperazin-1-yl)-(4-pyrrolidin-1-ylmethyl-phenyl)-methanone dihydrochloride], the pKi is 9.00.
On the same count and under the same terms, in the case of `CCCCN1CCN(C(=O)c2ccc(CN3CCOCC3)cc2)CC1` [Example 37, (4-Butyl-piperazin-1-yl)-(4-morpholin-4-ylmethyl-phenyl)-methanone] it was 8.05.
For `CCC(CC)N1CCN(C(=O)c2ccc(CNCc3ccccc3)cc2)CC1` [Example 20, {4-(Benzylamino-methyl)-phenyl}-{4-(1-ethyl-propyl)-piperazin-1-yl}-methanone], the pKi was 8.70.
As to `CCCCN1CCN(C(=O)c2ccc(CNc3ccc(C(F)(F)F)cc3)cc2)CC1` [Example 31, (4-Butyl-piperazin-1-yl)-{4-{(4-trifluoromethyl-phenylamino)-methyl}-phenyl}-methanone], the pKi was 6.20.
`CC(C)N1CCN(C(=O)c2ccc(CN3CCSCC3)cc2)CC1` [Example 67, (4-Isopropyl-piperazin-1-yl)-(4-thiomorpholin-4-ylmethyl-phenyl)-methanone] gave a pKi of 8.70.
The compound `CC(C)N1CCN(C(=O)c2ccc(CN(C)C)cc2)CC1` [Example 62, (4-Dimethylaminomethyl-phenyl)-(4-isopropyl-piperazin-1-yl)-methanone dihydrochloride] had a negative-log Ki (pKi) of 8.30.
Consider `CC(C)N1CCN(C(=O)c2ccc(CN3CCCC(C(F)(F)F)C3)cc2)CC1` (stereo not drawn) [Example 56, (4-Isopropyl-piperazin-1-yl)-{4-(3-trifluoromethyl-piperidin-1-ylmethyl)-phenyl}-methanone dihydrochloride], for which the pKi was 9.00.
For the compound `CN1CCN(C(=O)c2ccc(CN3CCOCC3)cc2)CC1` [Example 43, (4-Methyl-piperazin-1-yl)-(4-morpholin-4-ylmethyl-phenyl)-methanone dihydrochloride], the pKi was 7.66.
`CCC(C)N1CCN(C(=O)c2ccc(CN(C)C)cc2)CC1` (stereo not drawn) [Example 24, (4-sec-Butyl-piperazin-1-yl)-(4-dimethylaminomethyl-phenyl)-methanone] showed a pKi of 8.82.
For the compound `CCCCN1CCN(C(=O)c2ccc(CN3CCCC(C(F)(F)F)C3)cc2)CC1` (stereo not drawn) [Example 36, (4-Butyl-piperazin-1-yl)-{4-(3-trifluoromethyl-piperidin-1-ylmethyl)-phenyl}-methanone], the negative-log Ki (pKi) is 7.92.
`CC(C)N1CCN(C(=O)c2ccc(CNc3ccc(Cl)cn3)cc2)CC1` [Example 53, {4-{(5-Chloro-pyridin-2-ylamino)-methyl}-phenyl}-4-isopropyl-piperazin-1-yl)-methanone dihydrochloride] showed a pKi of 7.52.
As for `CCC(CC)N1CCN(C(=O)c2ccc(CNc3ccc(C(F)(F)F)cc3)cc2)CC1` [Example 47, {4-(1-Ethyl-propyl)-piperazin-1-yl}-{-{4-{(4-trifluoromethyl-phenylamino)-methyl}-phenyl}-methanone dihydrochloride], the pKi was 7.09. Compared with the last compound, the pKi is 0.43 log units lower.

The values above are taken from patent publication US7414047B2, “Piperazinyl and diazapanyl benzamides and benzthioamides” (Janssen Pharmaceutica N.V., priority 2002, dated 2008).
